Measurements reported in patent US11198695B2, “Fused ring derivative having MGAT-2 inhibitory activity” (Shionogi & Co., Ltd., priority 2017, dated 2021).

Each compound was assayed against recombinant human MGAT2 (Homo sapiens (Human), UniProt Q3SYC2) (assay: Measurement of human MGAT2 inhibitory activity). Conditions: read-out: IC50 (concentration exhibiting 50% enzyme inhibition), Table 53.
Type: biochemical
How it was run: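 Membrane fraction of Sf9 cells expressing N-terminally Flag-tagged full-length human MGAT2, incubated 1 h at room temperature in 100 mmol/L phosphate pH 7.4 with 2 mmol/L DTT. The substrate solution held 30 μmol/L 2-oleoylglycerol and 10 μmol/L oleoyl-CoA. Diolein product was quantified by RapidFire ESI Q-TOF MS against diolein-d5 internal standard; % inhibition was set relative to with/without-enzyme controls.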

recombinant human MGAT2, sequence (Q3SYC2 whole entry): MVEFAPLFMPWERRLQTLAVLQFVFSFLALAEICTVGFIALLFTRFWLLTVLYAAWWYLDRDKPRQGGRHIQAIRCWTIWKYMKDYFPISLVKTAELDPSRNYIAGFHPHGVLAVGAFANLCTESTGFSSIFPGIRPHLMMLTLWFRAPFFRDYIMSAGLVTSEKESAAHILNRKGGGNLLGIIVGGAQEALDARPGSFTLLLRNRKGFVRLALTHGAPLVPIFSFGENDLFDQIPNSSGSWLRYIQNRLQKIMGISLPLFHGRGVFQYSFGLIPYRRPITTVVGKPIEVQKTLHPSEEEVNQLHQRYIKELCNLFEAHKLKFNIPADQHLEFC

SMILES	IC50
Cc1ccc(-n2nc3c(c2C(=O)NCCC(F)(F)F)C(=O)N[C@@]2(CCc4cc(OCC(F)(F)F)ccc42)C3)nc1 [II-195]	29.8 nM
Cc1ccc(-n2nc3c(c2C(=O)NCC(N)=O)C(=O)N[C@@]2(CCc4cc(OCC(F)(F)F)ccc42)C3)nc1 [II-196]	18.7 nM
Cc1ccc(-n2nc3c(c2C(=O)NCC#N)C(=O)N[C@@]2(CCc4cc(OCC(F)(F)F)ccc42)C3)nc1 [II-197]	6.79 nM
Cc1ccc(-n2nc3c(c2C(=O)NCC2(CO)CC2)C(=O)N[C@@]2(CCc4cc(OCC(F)(F)F)ccc42)C3)nc1 [II-198]	4.18 nM
Cc1ccc(-n2nc3c(c2C(=O)NCCS(C)(=O)=O)C(=O)N[C@@]2(CCc4cc(OCC(F)(F)F)ccc42)C3)nc1 [II-199]	73.6 nM
Cc1ccc(-n2nc3c(c2C(=O)NCC2(O)CC2)C(=O)N[C@@]2(CCc4cc(OCC(F)(F)F)ccc42)C3)nc1 [II-200]	2.29 nM
Cc1ccc(-n2nc3c(c2C(=O)NCCS(N)(=O)=O)C(=O)N[C@@]2(CCOc4cc(OCC(F)(F)F)ccc42)C3)nc1 [II-204]	22.3 nM
Cc1cc(-n2nc3c(c2NC(=O)CS(C)(=O)=O)C(=O)N[C@@]2(CCc4cc(OCC(F)(F)F)ccc42)C3)nn1C [II-205]	3.78 nM
Cc1ccc(-n2nc3c(c2NC(=O)CS(C)(=O)=O)C(=O)N[C@](C)(c2ccc(OCC(F)F)cc2F)C3)nc1 [II-206]	5.72 nM
CCOc1ccc([C@]2(C)Cc3nn(-c4ccc(C)cn4)c(NC(=O)CS(C)(=O)=O)c3C(=O)N2)c(F)c1 [II-207]	5.86 nM
Cc1ccc(-n2nc3c(c2NC(=O)CS(C)(=O)=O)C(=O)N[C@](C)(c2ccc(OCC(C)(F)F)cc2F)C3)nc1 [II-208]	3.09 nM
Cc1ccc(-n2nc3c(c2C(=O)NCCS(N)(=O)=O)C(=O)N[C@@]2(CCc4cc(OCC(F)(F)F)ccc42)C3)cc1F [II-209]	95.3 nM
Cc1ccc(-n2nc3c(c2C(=O)NS(=O)(=O)c2ccccc2)C(=O)N[C@@]2(CCc4cc(OCC(F)(F)F)ccc42)C3)nc1 [II-210]	89.2 nM
COCCS(=O)(=O)NC(=O)c1c2c(nn1-c1ccc(C)cn1)C[C@]1(CCc3cc(OCC(F)(F)F)ccc31)NC2=O [II-211]	33.1 nM
Cc1ccc(-n2nc3c(c2C(=O)NS(=O)(=O)CCC(F)(F)F)C(=O)N[C@@]2(CCc4cc(OCC(F)(F)F)ccc42)C3)nc1 [II-212]	46.7 nM
Cc1ccc(-n2nc3c(c2C(=O)NS(=O)(=O)Cc2ccccc2)C(=O)N[C@@]2(CCc4cc(OCC(F)(F)F)ccc42)C3)nc1 [II-213]	59.5 nM
CS(=O)(=O)NC(=O)c1c2c(nn1-c1ccc(C#N)cn1)C[C@]1(CCc3cc(OCC(F)(F)F)ccc31)NC2=O [II-214]	26.3 nM
N#Cc1ccc(-n2nc3c(c2C(=O)NS(=O)(=O)c2ccccc2)C(=O)N[C@@]2(CCc4cc(OCC(F)(F)F)ccc42)C3)nc1 [II-215]	77 nM
COCCS(=O)(=O)NC(=O)c1c2c(nn1-c1ccc(C#N)cn1)C[C@]1(CCc3cc(OCC(F)(F)F)ccc31)NC2=O [II-216]	428 nM
N#Cc1ccc(-n2nc3c(c2C(=O)NS(=O)(=O)CCC(F)(F)F)C(=O)N[C@@]2(CCc4cc(OCC(F)(F)F)ccc42)C3)nc1 [II-217]	68.9 nM
N#Cc1ccc(-n2nc3c(c2C(=O)NS(=O)(=O)Cc2ccccc2)C(=O)N[C@@]2(CCc4cc(OCC(F)(F)F)ccc42)C3)nc1 [II-218]	67.8 nM
Cc1ccc(-n2nc3c(c2C(=O)NCC#N)C(=O)N[C@@]2(CCc4cc(OCC(F)(F)F)ccc42)C3)cc1F [II-219]	82.5 nM
Cc1ccc(-n2nc3c(c2C(=O)NCC2(CO)CC2)C(=O)N[C@@]2(CCc4cc(OCC(F)(F)F)ccc42)C3)cc1F [II-220]	8.19 nM
Cc1ccc(-n2nc3c(c2C(=O)NCC2(O)CC2)C(=O)N[C@@]2(CCc4cc(OCC(F)(F)F)ccc42)C3)cc1F [II-221]	6.87 nM

SMILES	IC50
Cc1ccc(-n2nc3c(c2C(=O)NCC2(C#N)CC2)C(=O)N[C@@]2(CCc4cc(OCC(F)(F)F)ccc42)C3)cc1F [II-222]	53.4 nM
Cc1ccc(-n2nc3c(c2C(=O)NS(C)(=O)=O)C(=O)N[C@@]2(CCc4cc(OCC(F)(F)F)ccc42)C3)cc1F [II-223]	52.4 nM
CS(=O)(=O)CC(=O)Nc1c2c(nn1-c1ccc(F)c(F)c1)C[C@]1(CCOc3cc(C4CC4)ccc31)NC2=O [II-224]	2.21 nM
Cc1ccc(-n2nc3c(c2C(=O)NS(=O)(=O)C2CC2)C(=O)N[C@@]2(CCc4cc(OCC(F)(F)F)ccc42)C3)cc1F [II-226]	15.8 nM
Cc1ccc(-n2nc3c(c2C(=O)NCC(F)(F)F)C(=O)N[C@@]2(CCOc4cc(OCC(F)(F)F)ccc42)C3)nc1 [II-227]	96.4 nM
Cc1ccc(-n2nc3c(c2C(=O)NCC#N)C(=O)N[C@@]2(CCOc4cc(OCC(F)(F)F)ccc42)C3)nc1 [II-228]	37 nM
Cc1ccc(-n2nc3c(c2C(=O)NCC(N)=O)C(=O)N[C@@]2(CCOc4cc(OCC(F)(F)F)ccc42)C3)nc1 [II-229]	64.8 nM
Cc1ccc(-n2nc3c(c2C(=O)NCC2(O)CC2)C(=O)N[C@@]2(CCOc4cc(OCC(F)(F)F)ccc42)C3)nc1 [II-230]	14.2 nM
Cc1ccc(-n2nc3c(c2C(=O)NCC2(C#N)CC2)C(=O)N[C@@]2(CCOc4cc(OCC(F)(F)F)ccc42)C3)nc1 [II-231]	97.8 nM
Cc1ccc(-n2nc3c(c2C(=O)NCC2(C(F)F)CC2)C(=O)N[C@@]2(CCOc4cc(OCC(F)(F)F)ccc42)C3)nc1 [II-232]	67.3 nM
Cc1ccc(-n2nc3c(c2NC(=O)CS(C)(=O)=O)C(=O)N[C@@]2(CCc4cc(C(F)(F)F)ccc42)C3)nn1 [II-234]	5.49 nM
Cc1cc(-n2nc3c(c2NC(=O)CS(C)(=O)=O)C(=O)N[C@@]2(CCOc4cc(C5CC5)ccc42)C3)no1 [II-235]	1.17 nM
CC(C)(F)COc1ccc2c(c1)CC[C@@]21Cc2nn(CCCOC(F)(F)F)c(NC(=O)CS(C)(=O)=O)c2C(=O)N1 [II-236]	5.34 nM
CS(=O)(=O)CC(=O)Nc1c2c(nn1CCCOC(F)(F)F)C[C@@]1(CCc3cc(OCC(F)(F)C(F)F)ccc31)NC2=O [II-237]	3.43 nM
Cc1ccc(-n2nc3c(c2C(=O)NS(C)(=O)=O)C(=O)N[C@@]2(CCc4cc(OCC(F)(F)F)ccc42)C3)nc1 [II-238]	15 nM
Cc1ccc(-n2nc3c(c2C(=O)NCC#N)C(=O)N[C@@](c2ccc(OCC(F)(F)F)cc2F)(C(F)(F)F)C3)nc1 [II-239]	4.62 nM
Cc1ccc(-n2nc3c(c2C(=O)NCC(F)(F)F)C(=O)N[C@@](c2ccc(OCC(F)(F)F)cc2F)(C(F)(F)F)C3)nc1 [II-240]	14.3 nM
Cc1ccc(-n2nc3c(c2C(=O)NCC(N)=O)C(=O)N[C@@](c2ccc(OCC(F)(F)F)cc2F)(C(F)(F)F)C3)nc1 [II-241]	24.6 nM
Cc1ccc(-n2nc3c(c2C(=O)NCCS(N)(=O)=O)C(=O)N[C@@](c2ccc(OCC(F)(F)F)cc2F)(C(F)(F)F)C3)nc1 [II-242]	25.6 nM
N#CCNC(=O)c1c2c(nn1-c1ccc(C#N)cn1)C[C@@]1(CCc3cc(OCC(F)(F)F)ccc31)NC2=O [II-243]	1.74 nM
N#Cc1ccc(-n2nc3c(c2C(=O)NCC(F)(F)F)C(=O)N[C@]2(CCc4cc(OCC(F)(F)F)ccc42)C3)nc1 [II-244]	4.81 nM
N#Cc1ccc(-n2nc3c(c2C(=O)NCC(N)=O)C(=O)N[C@]2(CCc4cc(OCC(F)(F)F)ccc42)C3)nc1 [II-245]	11.3 nM
N#Cc1ccc(-n2nc3c(c2C(=O)NCCS(N)(=O)=O)C(=O)N[C@]2(CCc4cc(OCC(F)(F)F)ccc42)C3)nc1 [II-246]	3.73 nM
